For 8 molecules, inhibition results are on record in patent publication US9593118B2, “Xanthine-substituted alkynyl carbamates/reverse carbamates as A2B antagonists” (Lewis and Clark Pharmaceuticals, Inc., priority 2015, dated 2017).

The structures appear in SMILES notation. Bounds are passed on as bounds.

For this test, the target named is T1, A2B adenosine receptor (Homo sapiens, UniProt P29275).
T1 construct: An endogenous A2B adenosine receptor coupled to cyclic AMP generation in human embryonic kidney (HEK-293) cells; endogenous in cells
T1 sequence (P29275 1-332): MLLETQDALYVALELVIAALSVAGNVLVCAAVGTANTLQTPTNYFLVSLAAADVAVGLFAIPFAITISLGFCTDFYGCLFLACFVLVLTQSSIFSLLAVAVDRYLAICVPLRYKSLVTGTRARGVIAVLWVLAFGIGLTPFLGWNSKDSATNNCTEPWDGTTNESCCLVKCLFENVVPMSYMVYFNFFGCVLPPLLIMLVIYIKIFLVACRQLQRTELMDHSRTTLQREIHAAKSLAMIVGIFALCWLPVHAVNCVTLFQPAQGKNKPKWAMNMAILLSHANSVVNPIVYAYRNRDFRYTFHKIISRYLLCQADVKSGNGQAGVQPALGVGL
Put plainly: A2B antagonist cAMP assay (inhibition of the NECA response, HTRF). The test is classed as cell-based. To be noted: test compound at 1×10^−7M; percent inhibition of the control response to 1 μM NECA (cAMP). As for the experimental part:
Representative compounds of the present invention have been tested for their activity as A2B antagonists and shown to be active. These values were obtained by using the following methodology.
The cells are suspended in HBSS buffer (Invitrogen) complemented with 20 mM HEPES (pH 7.4), then distributed in microplates at a density of 5×10^3 cells/well and preincubated for 5 min at room temperature in the presence of HBSS (basal control), the test compound or the reference antagonist. Thereafter, the reference agonist NECA is added at a final concentration of 1 μM. […] Following 10 min incubation at 37° C., the cells are lysed and the fluorescence acceptor (D2-labeled cAMP) and fluorescence donor (anti-cAMP antibody labeled with europium cryptate) are added. After 60 min at room temperature, the fluorescence transfer is measured at λex=337 nm and λem=620 and 665 nm using a microplate reader (Rubystar, BMG). The cAMP concentration is determined by dividing the signal measured at 665 nm by that measured at 620 nm (ratio). The results are expressed as a percent inhibition of the control response to 1 μM NECA. The standard reference antagonist is XAC, which is tested in each experiment at several concentrations to generate a concentration-response curve from which its IC50 value is calculated.
Reference: Cooper, J., Hill, S. J., and Alexander, S. P. H. (1997), An endogenous A2B adenosine receptor coupled to cyclic AMP generation in human embryonic kidney (HEK-293) cells, Brit. J. Pharmacol., 122: 546.
`CN(C(=O)OCC#Cc1nc2c([nH]1)c(=O)n(C1CC1)c(=O)n2C1CC1)c1ccccc1` [Example 7, 1,3-Dicyclopropyl-8-(3-((methyl(phenyl)carbamoyl)oxy)prop-1-yn-1-yl)xanthine] showed an inhibition at 0.1 µM above 5%. Consider `COc1ccccc1OC(=O)N(C)CC#Cc1nc2c([nH]1)c(=O)n(C1CC1)c(=O)n2C1CC1` [Example 5, 1,3-Dicyclopropyl-8-(3-(methyl((2-methoxyphenoxy)carbonyl)amino)prop-1-yn-1-yl)xanthine], for which the inhibition at 0.1 µM is above 5%.

For `CN(CC#Cc1nc2c([nH]1)c(=O)n(C1CC1)c(=O)n2C1CC1)C(=O)Oc1ccc(F)cc1` [Example 1, 1,3-Dicyclopropyl-8-(3-(methyl((4-fluorophenoxy)carbonyl)amino)prop-1-yn-1-yl)xanthine], the inhibition at 0.1 µM is above 20%. `CN(C(=O)OCC#Cc1nc2c([nH]1)c(=O)n(C1CC1)c(=O)n2C1CC1)c1ccc(Cl)cc1` [Example 8, 8-(3-(((4-Chlorophenyl)(methyl)carbamoyl)oxy)prop-1-yn-1-yl)-1,3-dicyclopropylxanthine] came in with an inhibition at 0.1 µM above 20%.

`CN(CC#Cc1nc2c([nH]1)c(=O)n(C1CC1)c(=O)n2C1CC1)C(=O)Oc1ccccc1Cl` [Example 6, 8-(3-(((2-Chlorophenoxy)carbonyl)(methyl)amino)prop-1-yn-1-yl)-1,3-dicyclopropylxanthine] yielded an inhibition at 0.1 µM above 5%. Then `CN(CC#Cc1nc2c([nH]1)c(=O)n(C1CC1)c(=O)n2C1CC1)C(=O)Oc1ccccc1` [Example 3, 1,3-Dicyclopropyl-8-(3-(methyl(phenoxycarbonyl)amino)prop-1-yn-1-yl)xanthine], with above 5%; and `CCCn1c(=O)n(C2CC2)c(=O)c2[nH]c(C#CCN(C)C(=O)Oc3ccc(F)cc3)nc21` [Example 2, 1-Cyclopropyl-3-propyl-8-(3-(methyl((4-fluorophenoxy)carbonyl)amino)prop-1-yn-1-yl)xanthine], with above 20%.

For the molecule `CN(CC#Cc1nc2c([nH]1)c(=O)n(C1CC1)c(=O)n2C1CC1)C(=O)Oc1cccc(C(F)(F)F)c1` [Example 4, 1,3-Dicyclopropyl-8-(3-(methyl((3-(trifluoromethyl)phenoxy)carbonyl)-amino)prop-1-yn-1-yl)xanthine], the inhibition at 0.1 µM was above 5%.
